The text below walks through data of patent US8563729B2, “Thienopyridone derivatives as AMP-activated protein kinase (AMPK) activators” (Merck Patent GmbH, priority 2008, dated 2013).

The target of this assay is T1, AMPK protein (recombinant α1β1γ2) (Homo sapiens, UniProt Q13131+Q9Y478).
T1 construct: made in house; host or cells: E. coli
T1 sequence (Q13131 whole entry): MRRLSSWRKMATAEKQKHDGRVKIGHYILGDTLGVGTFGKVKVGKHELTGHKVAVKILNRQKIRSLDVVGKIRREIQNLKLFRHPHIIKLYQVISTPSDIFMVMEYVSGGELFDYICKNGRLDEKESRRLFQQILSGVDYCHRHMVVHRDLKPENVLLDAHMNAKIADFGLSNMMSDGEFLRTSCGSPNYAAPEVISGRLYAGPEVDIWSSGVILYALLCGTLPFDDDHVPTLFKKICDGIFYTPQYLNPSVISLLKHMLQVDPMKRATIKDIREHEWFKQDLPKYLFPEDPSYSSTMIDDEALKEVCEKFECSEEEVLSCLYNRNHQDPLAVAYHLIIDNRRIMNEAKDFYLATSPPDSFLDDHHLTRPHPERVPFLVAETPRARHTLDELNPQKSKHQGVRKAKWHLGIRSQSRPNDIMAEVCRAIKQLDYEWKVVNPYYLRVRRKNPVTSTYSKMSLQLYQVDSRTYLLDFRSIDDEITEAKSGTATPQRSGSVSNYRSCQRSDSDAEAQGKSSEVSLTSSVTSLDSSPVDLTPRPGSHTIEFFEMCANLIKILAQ
T1 sequence (Q9Y478 whole entry): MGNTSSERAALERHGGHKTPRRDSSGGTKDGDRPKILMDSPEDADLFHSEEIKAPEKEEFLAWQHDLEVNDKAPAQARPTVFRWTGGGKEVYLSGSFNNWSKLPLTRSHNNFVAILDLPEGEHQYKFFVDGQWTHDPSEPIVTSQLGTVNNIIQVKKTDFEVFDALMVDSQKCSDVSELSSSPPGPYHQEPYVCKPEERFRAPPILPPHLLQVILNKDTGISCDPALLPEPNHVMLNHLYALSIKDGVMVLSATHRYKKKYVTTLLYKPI
T1 sequence (Q9UGJ0 whole entry partner): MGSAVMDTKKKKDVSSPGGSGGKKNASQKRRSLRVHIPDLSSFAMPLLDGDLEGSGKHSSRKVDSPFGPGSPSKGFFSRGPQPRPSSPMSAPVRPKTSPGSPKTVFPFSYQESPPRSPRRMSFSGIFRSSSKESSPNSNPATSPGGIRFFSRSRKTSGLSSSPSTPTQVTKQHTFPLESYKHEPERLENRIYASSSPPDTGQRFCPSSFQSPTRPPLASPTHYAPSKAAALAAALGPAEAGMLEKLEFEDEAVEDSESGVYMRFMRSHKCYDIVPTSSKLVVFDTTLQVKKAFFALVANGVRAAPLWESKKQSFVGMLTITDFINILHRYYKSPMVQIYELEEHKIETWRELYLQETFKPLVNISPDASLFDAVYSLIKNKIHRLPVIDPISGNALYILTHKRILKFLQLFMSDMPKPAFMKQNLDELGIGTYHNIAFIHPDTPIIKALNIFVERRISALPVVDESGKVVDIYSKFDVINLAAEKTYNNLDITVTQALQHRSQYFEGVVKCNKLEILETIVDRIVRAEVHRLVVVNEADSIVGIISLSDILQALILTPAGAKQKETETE
The experiment in a line: AMPK enzymatic activity (Delfia, AMARA peptide substrate). It is filed as biochemical. As to conditions: compound 30 μM vs AMP 30 μM; 125 μM ATP; ratio 90% or higher = direct activator. The procedure: The following biological test allows the determination of the efficacy of such compounds of formula (I) onto AMPK protein (recombinant α1β1γ2).
Human recombinant AMPK enzyme was expressed in E. Coli and was reactivated in vitro by LKB1 prior to enzyme activity determination.
AMPK enzyme activities were assayed by using A Delfia technology. AMPK enzyme activities were carried out in microtiter plates (50 mM Hepes buffer, pH 7.4 with 125 μM ATP respectively) in the presence of a synthetic peptide substrate (AMARAASAAALARRR, the “AMARA” peptide) and activators in serial dilutions. Reactions were initiated by the addition of AMPK (50-100 ng). Following mixing, the plates were incubated for 30 min at room temperature. Enzyme activity was assayed by using an anti-phosphoserine antibody to measure the quantity of phosphate incorporated into the AMARAA.
N°: Number of the molecule
Activity: Ratio between the % of control (basal activity) of compound of formula (I) at 30 μM and the % of control (basal activity) of AMP (natural substrate) at 30 μM.
Compounds of formula (I) in the table II are considered as direct activator of AMPK if the ratio is 90% or higher.
`O=c1[nH]c2sc(Cl)c(-c3ccc(F)cc3F)c2c(O)c1-c1ccccc1` [Compound 114]: the “activity: Ratio between the % of control (basal activity) of compound of formula (I) at 30 μM and the % of control (basal activity) of AMP at 30 μM” value (“activity: Ratio between the % of control” below) is 115%.

In the case of `O=c1[nH]c2scc(-c3cc(F)ccc3O)c2c(O)c1-c1ccccc1` [Compound 75], the “activity: Ratio between the % of control” value worked out at 135%.

Turning to `COc1ccc(-c2c(Cl)sc3[nH]c(=O)c(-c4ccccc4)c(O)c23)cc1F` [Compound 110], the “activity: Ratio between the % of control” value is reported as 121%.

Take `NC(=NO)c1ccc(-c2c(O)c3c(-c4ccccc4)c(Cl)sc3[nH]c2=O)cc1` [Compound 155]: the “activity: Ratio between the % of control” value stood at 95%.

Turning to `CS(=O)(=O)c1cccc(-c2c(O)c3c(-c4ccccc4)c(Cl)sc3[nH]c2=O)c1` [Compound 145], the “activity: Ratio between the % of control” value is 90%.

As to `O=c1[nH]c2scc(-c3ccc(CO)cc3)c2c(O)c1-c1ccccc1` [Compound 38], the “activity: Ratio between the % of control” value is 119%.

Consider `NC(=NO)c1cccc(-c2c(O)c3c(-c4ccccc4)c(Cl)sc3[nH]c2=O)c1` [Compound 146], for which the “activity: Ratio between the % of control” value turned out to be 103%.

As for `Cc1cccc(-c2csc3[nH]c(=O)c(-c4ccccc4)c(O)c23)c1` [Compound 50], the “activity: Ratio between the % of control” value is 103%.

For the molecule `O=c1[nH]c2scc(-c3ccc(Br)c(O)c3)c2c(O)c1-c1ccccc1` [Compound 74], the “activity: Ratio between the % of control” value is 112%.

Turning to `Cc1ccc(-c2c(O)c3c(-c4ccc(F)cc4O)c(Cl)sc3[nH]c2=O)cc1` [Compound 214], the “activity: Ratio between the % of control” value is 207%.

Regarding `O=c1[nH]c2scc(-c3ccc(Br)cc3)c2c(O)c1-c1cccnc1` [Compound 28], the “activity: Ratio between the % of control” value stood at 109%.

Consider `O=c1[nH]c2sc(Cl)c(-c3ccc(O)cc3F)c2c(O)c1-c1ccccc1` [Compound 116], for which the “activity: Ratio between the % of control” value was found to be 120%.

Take `O=c1[nH]c2scc(-c3ccccc3Cl)c2c(O)c1-c1ccccc1` [Compound 58]: the “activity: Ratio between the % of control” value is 103%.

Turning to `COc1ccc(-c2csc3[nH]c(=O)c(-c4ccccc4)c(O)c23)cc1` [Compound 32], the “activity: Ratio between the % of control” value is listed as 147%.

Consider `O=c1[nH]c2sc(Cl)c(-c3c(F)cccc3F)c2c(O)c1-c1ccccc1` [Compound 106, 2-chloro-3-(2,6-diflurophenyl)-4-hydroxy-5-phenyl-6,7-dihydro-thieno[2,3-b]pyridin-6-one], for which the “activity: Ratio between the % of control” value turned out to be 115%.

As for `O=C(O)c1ccc(-c2c(O)c3c(-c4ccccc4)c(Cl)sc3[nH]c2=O)cc1` [Compound 153], the “activity: Ratio between the % of control” value is given as 111%.

As to `O=c1[nH]c2sc(Cl)c(-c3ccccc3)c2c(O)c1-c1ccccc1O` [Compound 159], the “activity: Ratio between the % of control” value is reported as 164%.

As to `O=c1[nH]c2scc(-c3cccc(F)c3)c2c(O)c1-c1ccccc1` [Compound 49], the “activity: Ratio between the % of control” value is listed as 131%.

With `COc1ccc(-c2c(O)c3c(-c4ccc(F)cc4)csc3[nH]c2=O)cc1` [Compound 44], the “activity: Ratio between the % of control” value is given as 98%.

On to `COc1ccc(-c2csc3[nH]c(=O)c(-c4ccccc4)c(O)c23)c(O)c1` [Compound 81], for which the “activity: Ratio between the % of control” value came to 223%.

As for `COc1ccc(-c2csc3[nH]c(=O)c(-c4ccccc4)c(O)c23)c(OC)c1` [Compound 60], the “activity: Ratio between the % of control” value is 100%.

Regarding `Cc1ccc(-c2csc3[nH]c(=O)c(-c4ccccc4)c(O)c23)cc1O` [Compound 85], the “activity: Ratio between the % of control” value was found to be 406%.

With `O=c1[nH]c2scc(-c3ccc(F)cc3F)c2c(O)c1-c1ccccc1` [Compound 64], the “activity: Ratio between the % of control” value worked out at 109%.

Take `COc1ccc(-c2c(O)c3c(-c4ccc(OC)cc4)csc3[nH]c2=O)cc1` [Compound 40]: the “activity: Ratio between the % of control” value was found to be 109%.

Turning to `O=c1[nH]c2scc(-c3ccc(O)c(F)c3)c2c(O)c1-c1ccccc1` [Compound 72], the “activity: Ratio between the % of control” value is 150%.

Regarding `O=c1[nH]c2scc(-c3ccc(F)cc3)c2c(O)c1-c1ccc(O)cc1` [Compound 45], the “activity: Ratio between the % of control” value is on record as 114%.

On to `O=c1[nH]c2scc(-c3ccccc3O)c2c(O)c1-c1ccccc1` [Compound 55], for which the “activity: Ratio between the % of control” value is listed as 146%.

Regarding `O=c1[nH]c2scc(-c3ccccc3F)c2c(O)c1-c1ccccc1` [Compound 56], the “activity: Ratio between the % of control” value was found to be 107%.

`O=c1[nH]c2scc(-c3ccc(Br)cc3)c2c(O)c1-c1ccccc1` [Compound 25]: the “activity: Ratio between the % of control” value came to 119%.

In the case of `Cc1ccc(-c2csc3[nH]c(=O)c(-c4cccc(C#N)c4)c(O)c23)c(O)c1` [Compound 87], the “activity: Ratio between the % of control” value is 287%.

In the case of `O=c1[nH]c2scc(-c3ccc(Br)cc3O)c2c(O)c1-c1ccccc1` [Compound 77], the “activity: Ratio between the % of control” value is reported as 257%.

As for `O=c1[nH]c2scc(-c3cccc(O)c3)c2c(O)c1-c1ccccc1` [Compound 48], the “activity: Ratio between the % of control” value was 109%.

For the molecule `O=c1[nH]c2scc(-c3c(F)cccc3F)c2c(O)c1-c1ccccc1` [Compound 78], the “activity: Ratio between the % of control” value came to 160%.

In the case of `COc1ccc(O)c(-c2csc3[nH]c(=O)c(-c4ccccc4)c(O)c23)c1` [Compound 79], the “activity: Ratio between the % of control” value came out at 593%.

Take `O=c1[nH]c2scc(-c3ccc(O)cc3)c2c(O)c1-c1ccc(O)cc1` [Compound 41]: the “activity: Ratio between the % of control” value is listed as 92%.

With `O=c1[nH]c2scc(-c3cccc(CO)c3)c2c(O)c1-c1ccccc1` [Compound 52], the “activity: Ratio between the % of control” value was found to be 176%.

In the case of `O=c1[nH]c2sc(Cl)c(-c3cc(Cl)c(O)cc3F)c2c(O)c1-c1ccccc1` [Compound 113], the “activity: Ratio between the % of control” value was 95%.

For the molecule `N=C(N)c1cccc(-c2c(O)c3c(-c4ccccc4)c(Cl)sc3[nH]c2=O)c1` [Compound 142], the “activity: Ratio between the % of control” value is given as 126%.

Consider `O=c1[nH]c2sc(Cl)c(-c3ccc(F)cc3)c2c(O)c1-c1ccc(F)cc1` [Compound 203], for which the “activity: Ratio between the % of control” value turned out to be 251%.

Regarding `O=c1[nH]c2scc(-c3ccccc3)c2c(O)c1-c1ccccc1` [Compound 16], the “activity: Ratio between the % of control” value is 107%.

For `COc1cc(-c2csc3[nH]c(=O)c(-c4ccccc4)c(O)c23)ccc1Br` [Compound 73], the “activity: Ratio between the % of control” value was 94%.

With `O=C(O)c1sc2[nH]c(=O)c(-c3ccccc3)c(O)c2c1-c1ccccc1` [Compound 3], the “activity: Ratio between the % of control” value was 102%.

Regarding `CS(=O)(=O)c1ccc(-c2c(O)c3c(-c4ccccc4)c(Cl)sc3[nH]c2=O)cc1` [Compound 154], the “activity: Ratio between the % of control” value is 131%.

Consider `COc1ccc(-c2csc3[nH]c(=O)c(-c4ccccc4)c(O)c23)cc1F` [Compound 71], for which the “activity: Ratio between the % of control” value came to 131%.

For the molecule `Cc1ccc(-c2c(Cl)sc3[nH]c(=O)c(-c4ccccc4)c(O)c23)cc1` [Compound 135], the “activity: Ratio between the % of control” value is recorded as 113%.

As for `O=C(O)c1cccc(-c2c(O)c3c(-c4ccc(F)cc4)c(Cl)sc3[nH]c2=O)c1` [Compound 130], the “activity: Ratio between the % of control” value stood at 117%.

Regarding `O=c1[nH]c2sc(Cl)c(-c3ccc(O)cc3)c2c(O)c1-c1ccc(F)cc1` [Compound 132], the “activity: Ratio between the % of control” value is 108%.
